Experimental data published in paper PMC10424187, “Structure-Guided Design and Synthesis of a Pyridazinone Series of Trypanosoma cruzi Proteasome Inhibitors” (Journal of Medicinal Chemistry, 2023).
Converted amounts (≈) assume the structure as drawn. “And” between values parts separate entries of the source, which are not always exact repeats. Identical values can stand only once.

Tests used:
T. cruzi [1] = experiment: Chronic mouse efficacy model of Chagas disease; type: in vivo, Balb/c mice
Experimental: All regulated procedures on living animals were carried out under the authority of a project license issued by the Home Office under the Animals (Scientific Procedures) Act 1986, as amended in 2012 (and in compliance with EU Directive EU/2010/63). Infected animals had access to food and water ad libitum and were housed under a 12-hour light/dark photoperiod.
Animals used in these experiments were female NMRI and Balb/c mice (Harlan, UK). […]
In vivo Mouse Efficacy Studies.
The T. cruzi chronic efficacy study was run in Balb/c mice as previously described:
M.D. Lewis, A. Fortes Francisco, M.C. Taylor, J.M. Kelly, A new experimental model for assessing drug efficacy against Trypanosoma cruzi infection based on highly sensitive in vivo imaging, J. Biomol. Screen 20 (1) (2015) 36–43

T. cruzi [2] = experiment: T. cruzi in vitro washout assay; type: cell-based, Trypanosoma cruzi; conditions: for relapses, days post washout: 16-day treatment at 25-fold EC50, two replicates each
Excerpt: T. cruzi in vitro washout assay
This assay was run as previously reported:
Marco M.; Miles T.J.; Naylor C.; Osuna-Cabello M.; Paterson C.; Read K.D.; Pinto E.G.; Riley
J.; Scullion P.; Shishikura Y.; Simeons F.; Stojanovski L.; Svensen N.; Thomas J.; Wyatt P.G.;
disubstituted piperazines for the treatment of Chagas disease. […]

[3] = Mouse microsomal intrinsic clearance; type: in vitro ADME; conditions: mouse liver microsomes, scaling 52.5 mg microsomal protein/g liver
Experimental: Mouse microsomal intrinsic clearance.
This assay was conducted as previously described:
J.; Reid, I. H.; Hill, A. P.;
(§1) were prepared by adding a volume (5 µL) of the 10 mM solution to a volume (195 µL) of […]

[4] = test system: intracellular T. cruzi X10/7 A1 amastigotes
ChromLogD = type: physicochemical; conditions: pH 7.4; read-out: Chrom LogDpH7.4
Experimental: Chrom LogD was measured as previously described:
solubility and hydrophobicity. Drug Discov. Today 2010, 15, 648−655. […]

Human 20S proteasome = Human 20S proteasome (Homo sapiens, UniProt P28074+P49721); experiment: human proteasome assay (chymotrypsin-like activity, Suc-LLVY-Rho-110-DPro); conditions: for Emax: read-out: Hs Prot Max Response (%), individual replicate
[5] = Kinetic aqueous solubility (UHPLC, PBS pH 7.4); type: physicochemical; conditions: phosphate buffered saline, UHPLC UV/MS
Experimental: This assay was conducted as previously described: […]
as §1
format). Samples were then drawn through the filter using vacuum. The filtrate from the above […]
formic acid gradient elution. The UHPLC parameters are shown below:
Gradient program: Initial: 98% A, 2% B
Re-equilibration time: 0.6 min
Autosampler temperature: 25°C
Detector wavelength: 254 nm

T. cruzi proteasome = T. cruzi proteasome (Trypanosoma cruzi, UniProt V5BU39+V5C017); experiment: T. cruzi proteasome assay (chymotrypsin-like activity, Suc-LLVY-Rho-110-DPro); conditions: for Tc Prot Hill Slope / Tc Prot Max Response (%): individual replicate; for Emax: read-out: Tc Prot Max Response (%), individual replicate
Chain of T. cruzi proteasome (V5BU39 entry or part of it): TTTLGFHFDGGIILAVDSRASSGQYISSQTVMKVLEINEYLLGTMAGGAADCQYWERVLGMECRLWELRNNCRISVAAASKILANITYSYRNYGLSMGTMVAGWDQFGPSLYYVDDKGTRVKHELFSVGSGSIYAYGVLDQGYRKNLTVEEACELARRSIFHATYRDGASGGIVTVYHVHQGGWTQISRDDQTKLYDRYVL
Chain of T. cruzi proteasome (V5C017 entry or part of it): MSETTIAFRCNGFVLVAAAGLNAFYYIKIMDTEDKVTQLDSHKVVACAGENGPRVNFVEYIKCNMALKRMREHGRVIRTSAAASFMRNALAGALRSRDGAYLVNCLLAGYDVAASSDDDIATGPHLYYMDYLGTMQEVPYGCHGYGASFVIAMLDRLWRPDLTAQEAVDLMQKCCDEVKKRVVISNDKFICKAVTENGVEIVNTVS

[6] = mean of at least three independent replicates
[7] = T. cruzi Prot pIC50, mean of at least three independent replicates
[8] = Tc Prot pIC50, individual replicate

## O=C(Cn1ccnc1[N+](=O)[O-])NCc1ccccc1 [BNZ, benznidazole, reference compound]
T. cruzi [1]; 100 mg/kg for 20 days, u.i.d
  cure: cured all mice
T. cruzi [1]; dosed at 100 mg/kg
  effect on parasite levels: reduced parasite levels below detectable limits
T. cruzi [2]
  relapses, days post washout: 31 days and 35 days
T. cruzi [2]; 8 days of treatment, 50-fold EC50
  parasites relapsing on day: 21 days

## COc1ccc(Cn2nc(C(=O)Nc3ccc(F)c(C(=O)NCCN4CCOCC4)c3)ccc2=O)cc1 [Compound 21, N-[4-Fluoro-3-(2-morpholinoethylcarbamoyl)phenyl]-1-[(4-methoxyphenyl)methyl]-6-oxo-pyridazine-3-carboxamide]
[3]
  Mouse CLi: 3.6 mL/min/g
[4]
  EC50: 1.58 µM and 1 µM
  Emax: 95% and 94% and 98% and 96% and 92%
ChromLogD
  chromatographic logD: 3.7
Human 20S proteasome; individual replicate
  Hs Prot Max Response (%): 12%
  Hs Prot pIC50: < 4
Human 20S proteasome; [6]
  Hs Prot pIC50: <4
Human 20S proteasome
  Emax: 9%
[5]
  solubility at 24 h: 200 µM (≈ 102 µg/mL)
Host VERO cells
  EC50: > 50.1 µM
T. cruzi proteasome; [7]
  IC50: 0.126 µM
T. cruzi proteasome; [8]
  IC50: 0.126 µM
T. cruzi proteasome
  Tc Prot Hill Slope: 1.0 and 0.9
  Tc Prot Max Response (%): 72%
  Emax: 80%

## O=C(NC1CC1)c1ccc(F)c(NC(=O)c2ccc(=O)n(Cc3ccccc3)n2)c1 [Compound 10, 1-Benzyl-N-(5-(cyclopropylcarbamoyl)-2-fluorophenyl)-6-oxo-1,6-dihydropyridazine-3-carboxamide]
[3]
  Mouse CLi: 3.1 mL/min/g
[4]
  EC50: > 50.1 µM
ChromLogD
  chromatographic logD: 4.1
Human 20S proteasome; individual replicate
  Hs Prot Max Response (%): 17% and 3% and 2.27%
  Hs Prot pIC50: < 4
Human 20S proteasome; [6]
  Hs Prot pIC50: <4
[5]
  solubility at 24 h: 1.5 µM (≈ 0.61 µg/mL)
Host VERO cells
  EC50: > 50.1 µM
T. cruzi proteasome; [7]
  IC50: 1.58 µM
T. cruzi proteasome; [8]
  IC50: > 100 µM
T. cruzi proteasome
  Tc Prot Hill Slope: 1.2
  Tc Prot Max Response (%): 35% and 20% and 57%

## COc1ncc(Cn2nc(C(=O)Nc3ccc(F)c(C(=O)NC4CC4)c3)ccc2=O)cc1F [Compound 18, N-(3-(Cyclopropylcarbamoyl)-4-fluorophenyl)-1-((5-fluoro-6-methoxypyridin-3-yl)methyl)-6-oxo-1,6-dihydropyridazine-3-carboxamide]
[3]
  Mouse CLi: 3.5 mL/min/g
[4]
  EC50: 50.1 µM
  Emax: 53% and 54% and 55% and 67% and 52%
ChromLogD
  chromatographic logD: 5.6
Human 20S proteasome; individual replicate
  Hs Prot Max Response (%): 13%
  Hs Prot pIC50: < 4
Human 20S proteasome; [6]
  Hs Prot pIC50: <4
Human 20S proteasome
  Emax: 10%
[5]
  solubility at 24 h: < 1 µM
Host VERO cells
  EC50: > 50.1 µM
T. cruzi proteasome; [7]
  IC50: 2.51 µM
T. cruzi proteasome; [8]
  IC50: 5.01 µM and 1.58 µM
T. cruzi proteasome
  Tc Prot Hill Slope: 1.2 and 1.1
  Tc Prot Max Response (%): 80%
  Emax: 75%

## O=C(Nc1ccc(F)c(C(=O)NC2CC2)c1)c1ccc(=O)n(Cc2ccc(Cl)c(F)c2)n1 [Compound 17, 1-[(4-Chloro-3-fluorophenyl)methyl]-N-[3-(cyclopropylcarbamoyl)-4-fluorophenyl]-6-oxo-pyridazine-3-carboxamide]
[3]
  Mouse CLi: 4.8 mL/min/g
[4]
  EC50: 0.2 µM
  Emax: 90% and 93%
ChromLogD
  chromatographic logD: 5.1
Human 20S proteasome; individual replicate
  Hs Prot Max Response (%): 21% and 22% and 27% and 11%
  Hs Prot pIC50: < 4
Human 20S proteasome; [6]
  Hs Prot pIC50: <4
[5]
  solubility at 24 h: 21 µM (≈ 9.64 µg/mL)
Host VERO cells
  EC50: > 50.1 µM
T. cruzi proteasome; [7]
  IC50: 0.0251 µM
T. cruzi proteasome; [8]
  IC50: 0.0398 µM and 0.02 µM
T. cruzi proteasome
  Tc Prot Hill Slope: 0.9 and 1.0
  Tc Prot Max Response (%): 87% and 86%
  Emax: 80%

## O=C(Nc1ccc(F)c(C(=O)NC2CC2)c1)c1ccc(=O)n(Cc2ccccc2)n1 [Compound 9, 1-Benzyl-N-(3-(cyclopropylcarbamoyl)-4-fluorophenyl)-6-oxo-1,6-dihydropyridazine-3-carboxamide]
[3]
  Mouse CLi: 6.7 mL/min/g
[4]
  EC50: 2 µM
  Emax: 94% and 90% and 82% and 88% and 89%
ChromLogD
  chromatographic logD: 4.2
Human 20S proteasome; individual replicate
  Hs Prot Max Response (%): 8.53% and 11% and 6%
  Hs Prot pIC50: < 4
Human 20S proteasome; [6]
  Hs Prot pIC50: <4
Human 20S proteasome
  Emax: 7%
[5]
  solubility at 24 h: 218 µM (≈ 88.6 µg/mL)
Host VERO cells
  EC50: > 50.1 µM
  Emax: 29%
T. cruzi proteasome; [7]
  IC50: 0.158 µM
T. cruzi proteasome; [8]
  IC50: 0.251 µM and 0.2 µM and 0.1 µM
T. cruzi proteasome
  Tc Prot Hill Slope: 1.0 and 0.9
  Tc Prot Max Response (%): 83% and 82%
  Emax: 71%

## COc1ccc(Cn2nc(C(=O)Nc3ccc(F)c(C(=O)NC4CC4)c3)ccc2=O)cc1 [Compound 12, N-[3-(Cyclopropylcarbamoyl)-4-fluorophenyl]-1-[(4-methoxyphenyl)methyl]-6-oxo-pyridazine-3-carboxamide]
[3]
  Mouse CLi: 2.4 mL/min/g
[4]
  EC50: 0.398 µM and 0.316 µM and 0.501 µM
  Emax: 56% and 99% and 66%
ChromLogD
  chromatographic logD: 4.2
Human 20S proteasome; individual replicate
  Hs Prot Max Response (%): 8% and 12% and 18%
  Hs Prot pIC50: < 4
Human 20S proteasome; [6]
  Hs Prot pIC50: <4
[5]
  solubility at 24 h: 83 µM (≈ 36.2 µg/mL)
T. cruzi proteasome; [7]
  IC50: 0.0316 µM
T. cruzi proteasome; [8]
  IC50: 0.0398 µM and 0.0251 µM
T. cruzi proteasome
  Tc Prot Hill Slope: 0.95 and 0.9
  Tc Prot Max Response (%): 80% and 85%
  Emax: 67%

## COc1ccc(Cn2nc(C(=O)Nc3ccc(F)c(C(=O)NC4CC4)c3)ccc2=O)cc1Cl [Compound 14, 1-[(3-Chloro-4-methoxy-phenyl)methyl]-N-[3-(cyclopropylcarbamoyl)-4-fluorophenyl]-6-oxo-pyridazine-3-carboxamide]
[3]
  Mouse CLi: 1.6 mL/min/g
[4]
  EC50: 0.0501 µM and 0.0398 µM and 0.0631 µM
  Emax: 92% and 94% and 90% and 93%
ChromLogD
  chromatographic logD: 4.7
Human 20S proteasome; individual replicate
  Hs Prot Max Response (%): 17% and 49%
  Hs Prot pIC50: < 4
Human 20S proteasome; [6]
  Hs Prot pIC50: <4
[5]
  solubility at 24 h: < 1 µM
Host VERO cells
  EC50: > 50.1 µM
T. cruzi proteasome; [7]
  IC50: < 0.01 µM and 0.00316 µM
T. cruzi proteasome; [8]
  IC50: 0.00501 µM and 0.002 µM
T. cruzi proteasome
  Tc Prot Hill Slope: 0.95 and 0.9
  Tc Prot Max Response (%): 86%
  Emax: 80%

## COc1ccc(Cn2nc(C(=O)Nc3ccc(F)c(C(=O)NC4CC4)c3)ccc2=O)cc1C#N [Compound 16, 1-[(3-Cyano-4-methoxy-phenyl)methyl]-N-[3-(cyclopropylcarbamoyl)-4-fluorophenyl]-6-oxo-pyridazine-3-carboxamide]
[3]
  Mouse CLi: 0.7 mL/min/g
[4]
  EC50: 0.158 µM and 0.2 µM and 0.126 µM and 0.1 µM
  Emax: 91% and 90% and 102% and 87% and 92%
ChromLogD
  chromatographic logD: 4
Human 20S proteasome; individual replicate
  Hs Prot Max Response (%): 5%
  Hs Prot pIC50: < 4
Human 20S proteasome; [6]
  Hs Prot pIC50: <4
Human 20S proteasome
  Emax: 4%
[5]
  solubility at 24 h: < 1 µM
T. cruzi proteasome; [7]
  IC50: 0.01 µM
T. cruzi proteasome; [8]
  IC50: 0.0126 µM
T. cruzi proteasome
  Tc Prot Hill Slope: 1.2 and 1.1
  Tc Prot Max Response (%): 62%
  Emax: 72%

## CNC(=O)c1cc(NC(=O)c2ccc(=O)n(Cc3ccc(OC)cc3)n2)ccc1F [Compound 26, N-(4-Fluoro-3-(methylcarbamoyl)phenyl)-1-(4-methoxybenzyl)-6-oxo-1,6-dihydropyridazine-3-carboxamide]
T. cruzi [1]; 50 mg/kg b.i.d for 20 days
  cure: not curative
[4]
  EC50: 0.794 µM and 0.631 µM and 0.501 µM and 1 µM
  Emax: 92% and 94% and 95% and 87% and 86% and 98% and 90%
T. cruzi [2]
  relapses, days post washout: 35 days and 42 days
Human 20S proteasome; individual replicate
  Hs Prot Max Response (%): 21% and 3% and 0%
  Hs Prot pIC50: < 4
Human 20S proteasome; [6]
  Hs Prot pIC50: <4
Host VERO cells
  EC50: > 50.1 µM
  Emax: 20%
T. cruzi proteasome; [8]
  IC50: 0.0631 µM and 0.0316 µM
T. cruzi proteasome
  Tc Prot Hill Slope: 1.0 and 1.1
  Tc Prot Max Response (%): 82%
  Emax: 73%
